Reference: patent US20240124454A1, “TRICYCLIC COMPOUND AND USE THEREOF” (NANJING ZAIMING PHARMACEUTICAL CO., LTD., priority 2020, published 2024)
Like-named read-outs stand apart in the source and are kept apart here.

Assays:
[1] = Metabolic stability in human liver microsomes; format: in vitro ADME; settings: pH 7.4, 1 μM compound, 0.5 mg/mL microsome, NADPH, read-out: Human liver microsome stability t1/2
Description: (§1) Test Example 4. Determination of Metabolic Stability of Compound of the Present Application in Liver Microsomes
(§2) The metabolic stability of the compound of the present application in liver microsomes was determined using the following method.
(§3) I. Experimental materials and instruments • 1. Human liver microsome (Corning 452117), beagle dog liver microsome (XENOTECH D1000), SD rat liver microsome (XENOTECH R1000), and CD-i mouse liver microsome (XENOTECH M1000) • 2. Na2HPO4 (Tianjin Guangfu Fine Chemical Research Institute 20180130) • 3. KH2PO4 (Tianjin Guangfu Fine Chemical Research Institute 20180920) • 4. MgCl2 (Tianjin Guangfu Fine Chemical Research Institute 20191216) • 5. NADPH (Solarbio 1216C022) • 6. Positive control compound verapamil (Sigma MKBV4993V) • 7. AB Sciex API4000 liquid chromatography-mass spectrometry system
(§4) 1. Preparation of 100 mMV phosphate-buffered saline (PBS): 7.098 g Na2HPO4 was weighed. 500 mL pure water was added. The mixture was dissolved by sonication to give solution A. 3.400 g KH2PO4 was weighed. 250 mL pure water was added. The mixture was dissolved by sonication to give solution B. The solution A was placed in a stirrer, and the solution B was slowly added until the pH reached 7.4, so that the 100 mM PBS buffer was prepared.
(§5) 2. Preparation of reaction system
(§6) The reaction system was prepared as follows:
(§7) 3. The reaction system was pre-incubated in a 37° C. water bath for 10 min. 40 μL of 10 mM NADPH solution (NADPH was dissolved by 100 mM phosphate-buffered saline) was added to the reaction system with a final concentration of NADPH being 1 mM. A negative control was made by replacing the NADPH solution with 40 μL phosphate-buffered saline. The negative control was used to exclude the effect of chemical stability of the compound itself.
(§8) 4. The reaction was initiated by adding 4 μL of 100 μM of the compound of the present application and verapamil, the positive control compound, to the reaction system with a final concentration of the compound being 1 μM.
(§9) 5. After being uniformly mixed in a vortex oscillator, 50 μL incubation sample was respectively taken out at 0.5, 15, 30, 45, and 60 min, and the reaction was stopped by 200 μL glacial acetonitrile containing an internal standard. The sample was centrifuged at 3220 g for 45 min. 90 μL of the supernatant was transferred to a feeding plate after the centrifugation was completed, and 90 μL ultrapure water was added. The mixture was well mixed for LC-MS/MS analysis.
(§10) All data were calculated by Microsoft Excel software. The peak area was detected through an extracted ion chromatogram. The in vitro half-life (t1/2) of the compound was determined by linear fitting of the natural logarithm of compound elimination percentage over time.
(§11) In vitro half-life (t1/2) was calculated by the slope: […]
(§12) The in vitro intrinsic clearance (in μL/min/mg protein) was calculated using the following formula:
(§13) in vitro CLint=k×volume of incubation (μL)/amount of proteins (mg)
(§14) CLint was intrinsic clearance; k was an elimination rate constant; volume of incubation was the incubation volume (μL); amount of proteins was the amount of protein (mg)

[2] = Metabolic stability in mouse liver microsomes; format: in vitro ADME; settings: 1 μM compound, 0.5 mg/mL microsome, NADPH; for half-life at 1 μM: CD-1, mouse, liver microsomes, pH 7.4, read-out: Mouse liver microsome stability t1/2
Description: as §1, §2, §3, §4, §5, §6, §7, §8, §9, §10, §11, §12, §13, §14

[3] = Pharmacokinetics in Balb/c Nude mice; format: in vivo; settings: female, mouse, plasma; for bioavailability: Balb/c Nude, vs IV 1 mg/kg; for AUC(0-t): Balb/c Nude mice, read-out: AUC0-24
Description: Test Example 9. Determination of Pharmacokinetics of Compounds of Present Application
The pharmacokinetics of the compounds of the present application were determined in mice using the following method.
I. Materials: • Balb/c Nude mice, purchased from Beijing Vital River Laboratory Animal Technology Co., Ltd. • NMP (N-methyl-2-pyrrolidone), Solutol® HS 15 (polyoxyethylenated 12-hydroxystearic acid), and Vitamin E TPGS (D-a-tocopherol-polyethylene glycol 1000 succinate), purchased from Sigma. • Acetonitrile, purchased from Merck (USA).
II. Vehicle preparation: • 10% aqueous VE TPGS solution: 1 g of VE TPGS was dissolved in purified water, and the volume was brought to 10 mL. • 5% NMP+10% Solutol® HS 15+85% water: 0.5 mL of NMP was measured using a pipette, 1 g of Solutol® HS 15 was weighed, and the volume was brought to 10 mL with water.
6 female Balb/c Nude mice (20-30 g, 4-6 weeks) were randomized into 2 groups of 3. Group 1 was administered with 1 mpk (1 mg/kg) test compound by injection at the tail vein (IV), and the vehicle was 5% NMP+10% Solutol® HS 15+85% water. Group 2 was administered with 1 or 3 mpk test compound by oral administration (PO) (see the table below for specific doses), and the vehicle was 5% NMP+10% Solutol® HS 15+85% water or 10% Vitamin E TPGS aqueous solution. Before the experiment, all animals were given free access to food and water. Blood samples of the mice in each group were collected intravenously pre-dose and at 0.083 h (only the intravenous injection group), 0.25 h, 0.5 h, 1 h, 2 h, 4 h, 6 h, 8 h, and 24 h post-dose. The whole blood samples were collected in K2EDTA vacutainers, and the plasma samples were prepared by 5 min of centrifugation (4000 rpm, 4° C.).
10 μL of mouse plasma was added to 150 μL acetonitrile solvent (containing an internal standard) to precipitate the protein. The mixture was vortexed for 0.5 min and centrifuged (14000 rpm) for 5 min. The supernatant was diluted 2-fold with water containing 0.1% (v/v) FA and quantitatively detected on an LC-MS/MS system (AB Sciex Triple Quad 6500+). When the concentration of the sample was measured, quality control samples were also analyzed and a Balb/c Nude mouse plasma standard curve was plotted. For 10× diluted samples, 2 μL of the sample was added to 18 μL of blank plasma. The mixture was vortexed for 0.5 min. Then 300 μL of acetonitrile solvent (containing an internal standard) was added to precipitate the protein. The other steps were the same as those in undiluted samples.

[4] = PO 1 mg/kg, vehicle 5% NMP + 10% Solutol HS 15 + 85% water
[5] = PO 3 mg/kg, vehicle 10% VE TPGS aqueous solution

SMILES	half-life at 1 μM [1] [h]	half-life at 1 μM [2] [h]	bioavailability [3, 4] [%]	AUC(0-t) [3, 4] [ng·h/mL]	bioavailability [3, 5] [%]	AUC(0-t) [3, 5] [ng·h/mL]	Mouse liver microsome stability t1/2 [2] [h]
Cc1ncccc1-n1c(=O)c2ncn(C)c2c2ccc(C(F)(F)F)nc21 (atropisomer, axis not shown) [Compound 20, 1-methyl-5-(2-methylpyridin-3-yl)-7-(trifluoromethyl)-1,5-dihydro-4H-imidazo[4,5-c][1,8]naphthyridin-4-one]	> 5	> 5	–	–	–	–	–
Cn1cnc2c(=O)n(-c3cccc(F)c3Cl)c3nc(C(F)(F)F)ccc3c21 (atropisomer, axis not shown) [Compound 25, 5-(2-chloro-3-fluorophenyl)-1-methyl-7-(trifluoromethyl)-1,5-dihydro-4H-imidazo[4,5-c][1,8]naphthyridin-4-one]	> 5	4.78	~100	5840	–	–	–
Cn1cnc2c(=O)n(-c3cccnc3C3CC3)c3cc(Cl)ccc3c21 (single isomer, unassigned) [Compound 49-P2, 7-chloro-5-(2-cyclopropylpyridin-3-yl)-1-methyl-1,5-dihydro-4H-imidazo[4,5-c]quinolin-4-one]	3.78	> 5	89.6	11300	–	–	–
Cn1cnc2c(=O)n(-c3cccc(F)c3Cl)c3cc(Cl)ccc3c21 [Compound 39, 7-chloro-5-(2-chloro-3-fluorophenyl)-1-methyl-1,5-dihydro-4H-imidazo[4,5-c]quinolin-4-one]	–	–	–	–	–	–	>5
Cc1ncccc1-n1c(=O)c2ncoc2c2ccc(C(F)(F)F)nc21 [Compound 40, 5-(2-methylpyridin-3-yl)-7-(trifluoromethyl)oxazolo[4,5-c][1,8]naphthyridin-4(5H)-one]	> 5	> 5	–	–	–	–	–

The next lines start with results.

half-life at 1 μM [1] [h]	half-life at 1 μM [2] [h]	bioavailability [3, 4] [%]	AUC(0-t) [3, 4] [ng·h/mL]	bioavailability [3, 5] [%]	AUC(0-t) [3, 5] [ng·h/mL]	SMILES	Mouse liver microsome stability t1/2 [2] [h]
> 5	> 5	–	–	~100	30300	Cn1cnc2c(=O)n(-c3cccc(F)c3Cl)c3nc(C(F)(F)F)ccc3c21 (single isomer, unassigned) [Compound 25-P2, 5-(2-chloro-3-fluorophenyl)-1-methyl-7-(trifluoromethyl)-1,5-dihydro-4H-imidazo[4,5-c][1,8]naphthyridin-4-one]	–
> 5	> 5	~100	10500	–	–	Cn1cnc2c(=O)n(-c3cccnc3C(F)(F)F)c3nc(C(F)(F)F)ccc3c21 (single isomer, unassigned) [Compound 41-P2, 1-methyl-7-(trifluoromethyl)-5-(2-(trifluoromethyl)pyridin-3-yl)-1,5-dihydro-4H-imidazo[4,5-c][1,8]naphthyridin-4-one]	–
4.26	1.86	~100	10500	–	–	Cn1cnc2c(=O)n(-c3cccnc3C3CC3)c3nc(C(F)(F)F)ccc3c21 (single isomer, unassigned) [Compound 42-P2, 5-(2-cyclopropylpyridin-3-yl)-1-methyl-7-(trifluoromethyl)-1,5-dihydro-4H-imidazo[4,5-c][1,8]naphthyridin-4-one]	–
> 5	> 5	~100	24400	–	–	Cn1cnc2c(=O)n(-c3cccnc3C3CC3)c3cc(C(F)(F)F)ccc3c21 (single isomer, unassigned) [Compound 48-P2, 5-(2-cyclopropylpyridin-3-yl)-1-methyl-7-(trifluoromethyl)-1,5-dihydro-4H-imidazo[4,5-c]quinolin-4-one]	–
> 5	–	–	–	–	–	O=c1c2ncoc2c2ccc(C(F)(F)F)nc2n1-c1cccnc1C1CC1 (single isomer, unassigned) [Compound 81-P2, 5-(2-cyclopropylpyridin-3-yl)-7-(trifluoromethyl)oxazolo[4,5-c][1,8]naphthyridin-4(5H)-one]	–
> 5	> 5	–	–	–	–	Cc1ncccc1-n1c(=O)c2ncn(C)c2c2ccc(C(F)(F)F)cc21 [Compound 45, 1-methyl-5-(2-methylpyridin-3-yl)-7-(trifluoromethyl)-1,5-dihydro-4H-imidazo[4,5-c]quinolin-4-one]	–
